Target: T1, PRKCQ (PKC theta) (Homo sapiens, UniProt Q04759)
T1 construct: purchased Thermo Fisher Scientific (Life Technologies) SelectScreen
Experiment: SelectScreen Z'LYTE
Format: biochemical
Summary of the method: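 NU5455 was profiled across the SelectScreen Broad panel of kinase activity and binding assays. Z'LYTE reactions such as CSF1R ran at apparent Km ATP, while the Adapta CAMK1 assay used ATP listed as 10. Values are given as percent.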

T1 sequence (Q04759 whole entry): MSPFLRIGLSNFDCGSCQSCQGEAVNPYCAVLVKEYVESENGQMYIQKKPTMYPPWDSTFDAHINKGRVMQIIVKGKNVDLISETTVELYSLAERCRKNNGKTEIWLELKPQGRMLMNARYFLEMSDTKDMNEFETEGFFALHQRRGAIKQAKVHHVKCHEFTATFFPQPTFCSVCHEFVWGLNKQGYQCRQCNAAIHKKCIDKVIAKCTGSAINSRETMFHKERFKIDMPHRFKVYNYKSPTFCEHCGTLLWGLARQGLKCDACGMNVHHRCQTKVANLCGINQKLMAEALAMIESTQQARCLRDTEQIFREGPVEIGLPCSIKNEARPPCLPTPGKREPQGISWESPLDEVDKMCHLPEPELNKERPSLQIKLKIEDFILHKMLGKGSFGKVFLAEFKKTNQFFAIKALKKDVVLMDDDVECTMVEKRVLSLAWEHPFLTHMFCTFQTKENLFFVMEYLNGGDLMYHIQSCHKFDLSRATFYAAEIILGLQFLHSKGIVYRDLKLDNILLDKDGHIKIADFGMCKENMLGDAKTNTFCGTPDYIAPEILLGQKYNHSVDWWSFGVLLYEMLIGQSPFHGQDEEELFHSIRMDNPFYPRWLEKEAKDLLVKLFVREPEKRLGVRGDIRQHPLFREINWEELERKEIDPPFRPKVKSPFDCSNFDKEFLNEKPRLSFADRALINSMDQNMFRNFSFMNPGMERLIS

In the case of `CN(C(=O)CN1CCOCC1)c1ccc2sc3c(-c4cccc5c(=O)cc(N6CC7CCC(C6)O7)oc45)cccc3c2c1` [NU5455], the inhibition at 1 µM was -3.7%.

Reference: PMC6934184, “Selective DNA-PKcs inhibition extends the therapeutic index of localized radiotherapy and chemotherapy” (The Journal of Clinical Investigation, 2019)
